Tests used:
Format in all cases: in vivo
[1] = test system: PKC; test: PKC activity on the skin of mice, ELISA; conditions: topical, FIG. 2
Procedure: (§1) In all examples that follow, 20-30 g male mice were kept in filtered-air ventilated cages, with controlled temperature (22±2° C.) and humidity (50-60%), 12 h light/12 h dark cycles, with free access to water and food. The animals remained in the lab for an adaptation period of at least 1 hour before the pharmacological tests, held between 8:00 and 17:00 h.
This was an evaluation of the effect of the compounds of the invention upon the PKC activity, on the skin of mice. The animals received the following 100 μg/ear compositions: • a positive control, namely TPA (tetradecanoylphorbol-13-acetate), 2.5 μg/ear, in a vehicle comprising a 3:1 mixture of acetone:ethanol. • a negative control, namely the vehicle, which is a 3:1 mixture of acetone:ethanol; • A mixture of 100 μg euphol and 2.5 μg TPA, per ear, in a vehicle comprising a 3:1 mixture of acetone:ethanol.
5-member groups of mice were topically applied, in the inner surface of the ears, the compositions above. The PKC activity, before and after exposure to the tested compositions, was measured using ELISA (enzyme-linked immuno sorbent assay).

[2] = test system: mice; test: Neuropathic pain induced by partial constriction of the sciatic nerve, Von Frey filament; conditions: FIGS. 5A; for mechanical nociceptive response induced by partial constriction of the sciatic nerve, acute treatment: euphol 30 mg/kg or gabapentin 70 mg/kg oral on 4th post-operatory day, 5B; for mechanical hypernociception induced by partial constriction of the sciatic nerve, prolonged treatment: once a day for 5 days from the 6th day, 5C
Procedure: as §1
(§2) The animals' nociceptive mechanical threshold was evaluated as the response frequency of paw withdrawal after ten applications of a Von Frey filament (VHF, Stoelting, Chicago, USA). The animals were individually placed in 9×7×11 cm transparent acrylic compartments over an elevated wire mesh platform, to allow access to the paw plantar surfaces. The Von Frey filament was applied to the right hind paw, watching the criteria of (1) application perpendicular to the plantar surface with enough pressure to bend the filament, so as to ensure total pressure; (2) the animals were evaluated when all four paws were accommodated on the wire mesh; (3) a paw withdrawal response was considered when the animal removed the paw entirely from the wire mesh; (4) each animal was stimulated 10 consecutive times, with 1 second duration each stimulation; (5) each paw withdrawal was considered as 10% of a response, with 10 withdrawals corresponding to 100% response.
The procedure here employed was similar to the one described for rats (Pain, 43:205-218, 1990), modified for mice ((Pain, 76:215-222, 1998), and standardized by Bortolanza et al (Eur J Pharmacol., 453:203-208, 2002). The mice were anesthetized with 7% chloral hydrate (0.6% ml/kg […]). Then the sciatic nerve was exposed on top of the thigh about the sciatic trifurcation, and ⅓-½ of the dorsal portion was tied with a suture filament no. 8. In the false-operated group, the sciatic nerve was exposed without the tying. On the 4th post-operatory day, a group of animals was treated orally with 30 mg/kg euphol, and another group treated orally with 70 mg/kg gabapentin, as a positive control. In predetermined times after the treatment (1, 2, 4, 6, 8, 24 and 48 hours) the mechanical threshold was evaluated, through stimulation with a 0.6 Von Frey filament. To assess the effect of the prolonged treatment, the animals were daily administered euphol, from the 6th day, for 5 days and the mechanical hypernociception was evaluated once a day, 4 h after the first administration, until the return of the nociceptive response similar to the control group. After that, the prolonged treatment protocol was repeated to evaluate a possible development of tolerance to the compound.

[3] = test system: mice ears; test: Ear thickness after topical TPA (irritating effect / inflammation), mice ears; conditions: euphol 100 μg/ear with TPA 2.5 μg/ear, acetone:ethanol 3:1, FIG. 1
Procedure: as §1
A characterization of the irritating effect of certain chemical compounds was effected, by comparing the results of treating mice ears topically with: • a positive control, namely TPA (tetradecanoylphorbol-13-acetate), 2.5 μg/ear, in a vehicle comprising a 3:1 mixture of acetone:ethanol. • a negative control, namely the vehicle, which is a 3:1 mixture of acetone:ethanol; • Euphol, 100 μg/ear, a compound of the invention, in a vehicle comprising a 3:1 mixture of acetone:ethanol; • A mixture of 100 μg of euphol and 2.5 μg TPA, per ear, in a vehicle comprising a 3:1 mixture of acetone:ethanol.
5-member groups of mice were topically applied, in the inner surface of the ears, the compositions above. The thickness of the ears, before and after exposure to the tested compositions, was measured using a digital micrometer, and the responses were expressed as mμ.

[4] = test system: mice; test: Inflammatory nociception induced by carragenan, Von Frey filament; conditions: acute; euphol 30 μg/kg oral 1 h before, dexamethasone 0.5 mg/kg s.c. 4 h before carragenan 300 μg/paw; 0.6 g Von Frey; FIGS. 3A, 3B
Procedure: as §1
as §2, with “The animals were individually placed in 9×7×11 cm transparent acrylic compartments over an elevated wire mesh platform, to allow access to the paw plantar surfaces.” left out, “response. […]” for “response.”
The animals were treated orally with euphol (30 μg/kg) one hour before the carragenan injection. […] Hypernociception was evaluated hourly during 8 hours with a 0.6 g Von Frey filament, as well as after 24 and 48 hours after carragenan injection.

[5] = test system: mice; test: Persistent inflammatory nociception induced by CFA, Von Frey filament; conditions: FIGS. 4A; for mechanical hypernociception induced by CFA, acute treatment: euphol 30 mg/kg or gabapentin 70 mg/kg oral, 1 h before CFA, 0.6 g Von Frey, 4B
Procedure: as §1
as §2, with “response. […]” for “response.”
Animals were treated orally with 30 mg/kg euphol or 70 mg/kg gabapentin (positive control), 1 hour before the CFA injection. The mechanical hypernociception was measured through stimulation with a 0.6 g Von Frey filament in time intervals of 1, 2, 4, 6, 8, 24 and 48 hours after CFA injection, and up to the re-establishment of the nociceptive response. […] For that, animals received daily 30 mg/kg euphol, orally, for 5 days, and hypernociception was evaluated once a day, 4 hours after the first administration. Mechanical hypernociception was evaluated until the return of the painful response. […]

SMILES	PKC activity (ELISA absorbance) vs vehicle group ([1]; TPA 2.5 μg/ear)	mechanical nociceptive response induced by partial constriction of the sciatic nerve, acute treatment [2]	mechanical hypernociception induced by partial constriction of the sciatic nerve, prolonged treatment [2]	inhibitory effect on ear thickness increase (inflammation) [3]	inflammatory mechanical hypernociception induced by carragenan (frequency of response, AUC) [4]	mechanical hypernociception induced by CFA, acute treatment [5]	nociceptive response caused by CFA, prolonged treatment ([5]; once a day for 5 days, euphol 30 mg/kg oral, 4C)	PKC activity increase induced by TPA (ELISA absorbance) ([1]; 100 μg euphol + 2.5 μg TPA per ear)
CCCCCCCCCCCCCC(=O)O[C@@H]1[C@@H](C)[C@@]2(O)[C@@H](C=C(CO)C[C@]3(O)C(=O)C(C)=C[C@@H]23)[C@@H]2C(C)(C)[C@]12OC(C)=O [TPA, tetradecanoylphorbol-13-acetate, reference compound]	significant increase in the PKC activity	–	–	–	–	–	–	–
CC(C)=CCC[C@@H](C)[C@@H]1CC[C@]2(C)C3=C(CC[C@@]12C)[C@@]1(C)CC[C@H](O)C(C)(C)[C@@H]1CC3 [euphol]	–	inhibited in a significant manner	reduced in a significant manner	significant even up to 24 hours after the treatment	significantly reduced	reduced significantly	inhibition of the nociceptive response caused by CFA during the 6 following days of treatment	significantly reduces the increase in PKC activity induced by TPA
NCC1(CC(=O)O)CCCCC1 [gabapentin, reference compound]	–	inhibited in a significant manner	reduced in a significant manner	–	–	close to the effect obtained with gabapentin	–	–
